Assay results taken from paper PMC6891286, “Towards the Development of an In vivo Chemical Probe for Cyclin G Associated Kinase (GAK)” (Molecules, 2019).

Columns and labels:
Test in all cases: KINOMEscan
Assay type in all cases: binding
Conditions in all cases: 35 at 1 µM; read-out: % inhibition
HIPK3 = target: T1, HIPK3 (Homo sapiens, UniProt Q9H422)
T1 construct: purchased Eurofins DiscoverX (KINOMEscan)
Protocol: (§1) KinomeScan Assay on 35 was performed as previously described at EuroFins DiscoverX (Fremont, CA, USA).

PIP5K2C = target: T2, PIP5K2C (Homo sapiens, UniProt Q8TBX8)
T2 construct: purchased Eurofins DiscoverX (KINOMEscan)
T2 sequence (Q8TBX8 whole entry): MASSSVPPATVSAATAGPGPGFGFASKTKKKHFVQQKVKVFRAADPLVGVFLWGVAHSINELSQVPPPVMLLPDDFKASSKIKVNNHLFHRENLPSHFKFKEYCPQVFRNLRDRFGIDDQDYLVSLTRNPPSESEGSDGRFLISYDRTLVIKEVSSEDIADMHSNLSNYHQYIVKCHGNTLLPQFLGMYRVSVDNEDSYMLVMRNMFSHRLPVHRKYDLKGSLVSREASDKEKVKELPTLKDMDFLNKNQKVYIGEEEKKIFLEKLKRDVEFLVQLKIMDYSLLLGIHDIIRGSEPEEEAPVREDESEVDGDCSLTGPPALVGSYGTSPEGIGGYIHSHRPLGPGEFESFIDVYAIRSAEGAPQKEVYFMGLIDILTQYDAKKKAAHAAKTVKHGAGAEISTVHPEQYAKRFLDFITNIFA
Protocol: as §1

KIT(V559D,V654A) = target: T3, KIT(V559D,V654A) (Homo sapiens, UniProt P10721, V559D/V654A)
T3 construct: purchased Eurofins DiscoverX (KINOMEscan)
T3 sequence (P10721 26-976 V559D/V654A): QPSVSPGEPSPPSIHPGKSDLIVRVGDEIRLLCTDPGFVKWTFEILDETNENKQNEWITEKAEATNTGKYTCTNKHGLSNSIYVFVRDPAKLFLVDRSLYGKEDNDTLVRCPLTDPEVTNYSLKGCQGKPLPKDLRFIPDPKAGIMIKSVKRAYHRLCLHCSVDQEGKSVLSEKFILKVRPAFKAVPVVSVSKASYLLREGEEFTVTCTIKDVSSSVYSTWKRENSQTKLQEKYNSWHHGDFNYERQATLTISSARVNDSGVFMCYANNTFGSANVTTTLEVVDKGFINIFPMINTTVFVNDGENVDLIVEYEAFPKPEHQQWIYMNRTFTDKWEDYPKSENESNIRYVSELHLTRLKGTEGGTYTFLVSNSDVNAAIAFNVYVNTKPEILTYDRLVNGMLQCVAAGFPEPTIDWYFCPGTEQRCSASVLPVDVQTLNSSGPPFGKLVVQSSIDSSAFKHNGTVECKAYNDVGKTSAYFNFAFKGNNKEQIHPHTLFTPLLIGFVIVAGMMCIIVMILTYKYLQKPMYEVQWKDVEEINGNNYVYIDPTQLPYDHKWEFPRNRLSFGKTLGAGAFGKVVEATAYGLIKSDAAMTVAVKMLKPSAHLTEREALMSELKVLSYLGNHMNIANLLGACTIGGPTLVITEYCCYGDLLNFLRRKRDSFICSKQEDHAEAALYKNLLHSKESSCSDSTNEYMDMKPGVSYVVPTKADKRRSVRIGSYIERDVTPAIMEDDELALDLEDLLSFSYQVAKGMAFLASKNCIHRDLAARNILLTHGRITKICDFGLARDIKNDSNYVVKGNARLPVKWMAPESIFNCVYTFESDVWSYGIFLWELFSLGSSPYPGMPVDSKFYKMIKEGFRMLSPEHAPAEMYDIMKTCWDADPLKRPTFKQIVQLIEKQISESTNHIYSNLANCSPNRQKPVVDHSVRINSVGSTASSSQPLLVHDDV
Protocol: as §1

[1] = target: T4, RSK4(Kin.Dom.2-C-terminal) (Homo sapiens, UniProt Q9UK32)
T4 construct: RSK4(Kin.Dom.2-C-terminal); purchased Eurofins DiscoverX (KINOMEscan)
Protocol: as §1

GRK7 = target: T5, GRK7 (Homo sapiens, UniProt Q8WTQ7)
T5 construct: purchased Eurofins DiscoverX (KINOMEscan)
Protocol: as §1

FES = target: T6, FES (Homo sapiens, UniProt P07332)
T6 construct: purchased Eurofins DiscoverX (KINOMEscan)
Protocol: as §1

CTK = target: T7, CTK (Homo sapiens, UniProt P42679)
T7 construct: purchased Eurofins DiscoverX (KINOMEscan)
T7 sequence (P42679 whole entry): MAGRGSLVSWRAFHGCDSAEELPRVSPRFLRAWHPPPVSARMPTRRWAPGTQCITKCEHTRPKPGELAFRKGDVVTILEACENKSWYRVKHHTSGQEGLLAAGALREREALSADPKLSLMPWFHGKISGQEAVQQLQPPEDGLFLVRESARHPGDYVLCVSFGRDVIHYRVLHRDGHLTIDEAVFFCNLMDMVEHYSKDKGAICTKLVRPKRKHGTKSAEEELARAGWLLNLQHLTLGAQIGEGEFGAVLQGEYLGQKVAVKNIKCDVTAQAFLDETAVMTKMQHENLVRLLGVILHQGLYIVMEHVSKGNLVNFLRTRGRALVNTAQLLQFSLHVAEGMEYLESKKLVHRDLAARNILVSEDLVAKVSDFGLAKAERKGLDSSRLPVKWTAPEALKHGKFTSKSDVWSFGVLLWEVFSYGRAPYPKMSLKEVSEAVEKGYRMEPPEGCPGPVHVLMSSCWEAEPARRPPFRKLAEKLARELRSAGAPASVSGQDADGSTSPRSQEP
Protocol: as §1

MST3 = target: T8, MST3 (Homo sapiens, UniProt Q9Y6E0)
T8 construct: purchased Eurofins DiscoverX (KINOMEscan)
T8 sequence (Q9Y6E0 whole entry): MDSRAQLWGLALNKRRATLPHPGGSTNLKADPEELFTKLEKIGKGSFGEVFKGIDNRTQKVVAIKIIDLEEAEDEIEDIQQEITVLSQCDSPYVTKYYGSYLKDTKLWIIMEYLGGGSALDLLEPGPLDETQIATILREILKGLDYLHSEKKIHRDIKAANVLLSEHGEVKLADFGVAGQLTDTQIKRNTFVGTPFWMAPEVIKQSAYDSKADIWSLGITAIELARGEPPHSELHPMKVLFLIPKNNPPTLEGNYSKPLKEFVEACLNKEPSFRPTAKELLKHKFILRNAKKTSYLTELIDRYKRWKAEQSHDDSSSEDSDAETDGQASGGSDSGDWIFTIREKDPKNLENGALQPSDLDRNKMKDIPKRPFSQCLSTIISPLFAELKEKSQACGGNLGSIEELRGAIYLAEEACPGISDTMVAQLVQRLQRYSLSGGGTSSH
Protocol: as §1

FLT3(D835H) = target: T9, FLT3(D835H) (Homo sapiens, UniProt P36888, D835H)
T9 construct: purchased Eurofins DiscoverX (KINOMEscan)
Protocol: as §1

EPHA1 = target: T10, EPHA1 (Homo sapiens, UniProt P21709)
T10 construct: purchased Eurofins DiscoverX (KINOMEscan)
Protocol: as §1

MYLK4 = target: T11, MYLK4 (Homo sapiens, UniProt Q86YV6)
T11 construct: purchased Eurofins DiscoverX (KINOMEscan)
T11 sequence (Q86YV6 whole entry): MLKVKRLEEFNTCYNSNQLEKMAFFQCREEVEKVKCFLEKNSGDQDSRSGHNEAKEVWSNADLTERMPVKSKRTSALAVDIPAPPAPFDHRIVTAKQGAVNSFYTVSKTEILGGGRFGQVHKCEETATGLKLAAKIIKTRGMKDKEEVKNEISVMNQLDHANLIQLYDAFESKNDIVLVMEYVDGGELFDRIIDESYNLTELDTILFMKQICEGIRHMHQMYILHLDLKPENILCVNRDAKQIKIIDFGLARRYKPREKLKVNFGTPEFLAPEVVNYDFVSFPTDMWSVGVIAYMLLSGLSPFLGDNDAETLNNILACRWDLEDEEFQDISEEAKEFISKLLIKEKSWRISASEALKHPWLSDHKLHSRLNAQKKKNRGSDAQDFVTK
Protocol: as §1

DYRK1B = target: T12, DYRK1B (Homo sapiens, UniProt Q9Y463)
T12 construct: purchased Eurofins DiscoverX (KINOMEscan)
Protocol: as §1

QSK = target: T13, QSK (Homo sapiens, UniProt Q9Y2K2)
T13 construct: purchased Eurofins DiscoverX (KINOMEscan)
Protocol: as §1

FGFR3 = target: T14, FGFR3 (Homo sapiens, UniProt P22607)
T14 construct: purchased Eurofins DiscoverX (KINOMEscan)
Protocol: as §1

NEK5 = target: T15, NEK5 (Homo sapiens, UniProt Q6P3R8)
T15 construct: purchased Eurofins DiscoverX (KINOMEscan)
Protocol: as §1

PRP4 = target: T16, PRP4 (Homo sapiens, UniProt Q13523)
T16 construct: purchased Eurofins DiscoverX (KINOMEscan)
Protocol: as §1

SNRK = target: T17, SNRK (Homo sapiens, UniProt Q9NRH2)
T17 construct: purchased Eurofins DiscoverX (KINOMEscan)
Protocol: as §1

EPHB4 = target: T18, EPHB4 (Homo sapiens, UniProt P54760)
T18 construct: purchased Eurofins DiscoverX (KINOMEscan)
T18 sequence (P54760 16-987): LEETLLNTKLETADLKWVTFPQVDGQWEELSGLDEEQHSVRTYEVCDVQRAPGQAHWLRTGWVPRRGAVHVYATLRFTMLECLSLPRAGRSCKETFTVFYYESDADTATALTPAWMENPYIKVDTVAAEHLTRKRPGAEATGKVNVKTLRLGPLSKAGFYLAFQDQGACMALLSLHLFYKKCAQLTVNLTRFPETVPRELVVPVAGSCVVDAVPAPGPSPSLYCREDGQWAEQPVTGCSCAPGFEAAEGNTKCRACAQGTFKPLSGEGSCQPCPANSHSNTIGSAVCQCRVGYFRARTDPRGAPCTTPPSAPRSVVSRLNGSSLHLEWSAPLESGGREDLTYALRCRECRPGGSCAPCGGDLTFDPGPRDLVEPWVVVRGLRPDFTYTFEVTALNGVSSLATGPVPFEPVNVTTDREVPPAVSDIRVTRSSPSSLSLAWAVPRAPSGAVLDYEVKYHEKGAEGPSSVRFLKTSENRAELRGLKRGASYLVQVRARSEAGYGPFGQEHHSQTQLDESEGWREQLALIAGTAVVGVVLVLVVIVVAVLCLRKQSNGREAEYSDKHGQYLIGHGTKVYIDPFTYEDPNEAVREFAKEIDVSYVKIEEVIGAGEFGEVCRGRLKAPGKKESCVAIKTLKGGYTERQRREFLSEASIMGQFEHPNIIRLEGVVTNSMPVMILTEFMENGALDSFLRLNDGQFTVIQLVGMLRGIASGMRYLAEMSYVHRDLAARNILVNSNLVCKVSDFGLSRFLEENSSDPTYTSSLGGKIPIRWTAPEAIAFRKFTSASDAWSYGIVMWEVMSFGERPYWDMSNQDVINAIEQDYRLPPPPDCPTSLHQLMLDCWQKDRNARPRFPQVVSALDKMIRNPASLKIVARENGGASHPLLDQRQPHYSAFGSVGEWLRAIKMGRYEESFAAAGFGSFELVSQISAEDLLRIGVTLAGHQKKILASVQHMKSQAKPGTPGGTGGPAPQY
Protocol: as §1

TXK = target: T19, TXK (Homo sapiens, UniProt P42681)
T19 construct: purchased Eurofins DiscoverX (KINOMEscan)
Protocol: as §1

DAPK2 = target: T20, DAPK2 (Homo sapiens, UniProt Q9UIK4)
T20 construct: purchased Eurofins DiscoverX (KINOMEscan)
Protocol: as §1

[2] = target: T21, ABL1(F317I)-nonphosphorylated (Homo sapiens, UniProt P00519, F317I)
T21 construct: purchased Eurofins DiscoverX (KINOMEscan)
Protocol: as §1

PFTAIRE2 = target: T22, PFTAIRE2 (Homo sapiens, UniProt Q96Q40)
T22 construct: purchased Eurofins DiscoverX (KINOMEscan)
Protocol: as §1

[3] = target: T23, EGFR(L747-S752del, P753S) (Homo sapiens, UniProt P00533, DEL747-752/P753S)
T23 construct: purchased Eurofins DiscoverX (KINOMEscan)
Protocol: as §1

ALK = target: T24, ALK (Homo sapiens, UniProt Q9UM73)
T24 construct: purchased Eurofins DiscoverX (KINOMEscan)
Protocol: as §1

MEK6 = target: T25, MEK6 (Homo sapiens, UniProt P52564)
T25 construct: purchased Eurofins DiscoverX (KINOMEscan)
Protocol: as §1

STK35 = target: T26, STK35 (Homo sapiens, UniProt Q8TDR2)
T26 construct: purchased Eurofins DiscoverX (KINOMEscan)
Protocol: as §1

[4] = target: T27, ABL1(E255K)-phosphorylated (Homo sapiens, UniProt P00519, E255K)
T27 construct: purchased Eurofins DiscoverX (KINOMEscan)
Protocol: as §1

FLT3 = target: T28, FLT3 (Homo sapiens, UniProt P36888)
T28 construct: purchased Eurofins DiscoverX (KINOMEscan)
Protocol: as §1

EPHB3 = target: T29, EPHB3 (Homo sapiens, UniProt P54753)
T29 construct: purchased Eurofins DiscoverX (KINOMEscan)
Protocol: as §1

TAOK2 = target: T30, TAOK2 (Homo sapiens, UniProt Q9UL54)
T30 construct: purchased Eurofins DiscoverX (KINOMEscan)
Protocol: as §1

EIF2AK1 = target: T31, EIF2AK1 (Homo sapiens, UniProt Q9BQI3)
T31 construct: purchased Eurofins DiscoverX (KINOMEscan)
Protocol: as §1

IRAK1 = target: T32, IRAK1 (Homo sapiens, UniProt P51617)
T32 construct: purchased Eurofins DiscoverX (KINOMEscan)
Protocol: as §1

PIK3C2B = target: T33, PIK3C2B (Homo sapiens, UniProt O00750)
T33 construct: purchased Eurofins DiscoverX (KINOMEscan)
Protocol: as §1

TLK2 = target: T34, TLK2 (Homo sapiens, UniProt Q86UE8)
T34 construct: purchased Eurofins DiscoverX (KINOMEscan)
T34 sequence (Q86UE8 whole entry): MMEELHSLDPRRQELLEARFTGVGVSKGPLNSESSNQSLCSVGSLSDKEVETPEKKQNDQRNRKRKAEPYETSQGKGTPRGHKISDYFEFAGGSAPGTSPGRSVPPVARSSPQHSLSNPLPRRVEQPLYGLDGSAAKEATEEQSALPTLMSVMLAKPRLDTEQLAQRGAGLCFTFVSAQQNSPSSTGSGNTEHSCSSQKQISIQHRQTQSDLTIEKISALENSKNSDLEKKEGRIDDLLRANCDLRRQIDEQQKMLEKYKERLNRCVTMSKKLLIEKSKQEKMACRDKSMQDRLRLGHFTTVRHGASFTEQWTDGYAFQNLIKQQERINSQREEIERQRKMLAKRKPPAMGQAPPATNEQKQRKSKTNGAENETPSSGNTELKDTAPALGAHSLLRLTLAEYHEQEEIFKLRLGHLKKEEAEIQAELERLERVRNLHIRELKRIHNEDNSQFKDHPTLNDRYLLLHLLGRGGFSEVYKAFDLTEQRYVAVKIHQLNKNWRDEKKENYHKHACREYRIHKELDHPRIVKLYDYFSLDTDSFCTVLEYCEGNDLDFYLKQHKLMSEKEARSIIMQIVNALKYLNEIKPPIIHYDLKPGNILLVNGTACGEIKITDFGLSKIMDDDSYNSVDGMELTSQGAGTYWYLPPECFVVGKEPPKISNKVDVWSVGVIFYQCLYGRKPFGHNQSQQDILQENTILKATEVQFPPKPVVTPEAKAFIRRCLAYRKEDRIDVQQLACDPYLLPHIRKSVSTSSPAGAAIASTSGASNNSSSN
Protocol: as §1

[5] = target: T35, RPS6KA4(Kin.Dom.1-N-terminal) (Homo sapiens, UniProt O75676)
T35 construct: RPS6KA4(Kin.Dom.1-N-terminal); purchased Eurofins DiscoverX (KINOMEscan)
Protocol: as §1

DMPK = target: T36, DMPK (Homo sapiens, UniProt Q09013)
T36 construct: purchased Eurofins DiscoverX (KINOMEscan)
Protocol: as §1

HASPIN = target: T37, HASPIN (Homo sapiens, UniProt Q8TF76)
T37 construct: purchased Eurofins DiscoverX (KINOMEscan)
Protocol: as §1

ITK = target: T38, ITK (Homo sapiens, UniProt Q08881)
T38 construct: purchased Eurofins DiscoverX (KINOMEscan)
Protocol: as §1

TGFBR1 = target: T39, TGFBR1 (Homo sapiens, UniProt P36897)
T39 construct: purchased Eurofins DiscoverX (KINOMEscan)
T39 sequence (P36897 34-503): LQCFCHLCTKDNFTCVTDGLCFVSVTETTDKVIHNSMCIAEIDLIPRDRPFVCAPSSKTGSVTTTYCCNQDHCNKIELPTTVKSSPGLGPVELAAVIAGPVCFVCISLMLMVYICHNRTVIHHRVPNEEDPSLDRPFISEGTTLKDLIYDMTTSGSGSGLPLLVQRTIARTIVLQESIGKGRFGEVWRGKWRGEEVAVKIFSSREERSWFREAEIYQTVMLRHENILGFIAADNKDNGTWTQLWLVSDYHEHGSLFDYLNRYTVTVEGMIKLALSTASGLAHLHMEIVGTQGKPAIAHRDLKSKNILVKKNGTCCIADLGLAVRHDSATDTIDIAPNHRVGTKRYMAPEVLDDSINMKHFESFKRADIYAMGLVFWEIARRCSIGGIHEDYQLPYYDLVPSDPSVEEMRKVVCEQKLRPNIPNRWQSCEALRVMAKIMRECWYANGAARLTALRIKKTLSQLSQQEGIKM
Protocol: as §1

AURKB = target: T40, AURKB (Homo sapiens, UniProt Q96GD4)
T40 construct: purchased Eurofins DiscoverX (KINOMEscan)
Protocol: as §1

NEK2 = target: T41, NEK2 (Homo sapiens, UniProt P51955)
T41 construct: purchased Eurofins DiscoverX (KINOMEscan)
Protocol: as §1

MARK1 = target: T42, MARK1 (Homo sapiens, UniProt Q9P0L2)
T42 construct: purchased Eurofins DiscoverX (KINOMEscan)
Protocol: as §1

Measured: activity at 1 µM

Brc1ccc2nccc(Nc3ccc4cn[nH]c4c3)c2c1 [Compound 35, 6-Bromo-N-(1H-indazol-6-yl)quinolin-4-amine]
91%: TAOK2
90%: AURKB
44%: [4]
93%: CTK | NEK5
95%: PIP5K2C
86%: NEK2
94%: FLT3(D835H)
81%: [1]
66%: [3]
87%: HIPK3
77%: [2]
79%: PRP4 | HASPIN
92%: EIF2AK1
100%: all other assays above
